Here are results for three compounds from patent publication US11452758B2, “Antimicrobial peptide derived from LL37 peptide and uses thereof” (INDUSTRY-ACADEMIC COOPERATION FOUNDATION, CHOSUN UNIVERSITY, priority 2018, dated 2022).

Series [1] concerns S. typhimurium KCTC 1925. Format: cell-based, Salmonella typhimurium. The source says:
(§1) To compare the antimicrobial activity among the peptides produced by the method of Example 1, the inventors of the present invention measured the minimal growth inhibitory concentration (MIC), which is minimum concentration of the peptide not allowing any […] of bacterial cells.
(§2) Specifically, the bacterial strains described in the following Table 2 were purchased and cultured to a mid-log phase in MHB (Mueller Hinton Broth) medium. Then, after dilution to bacterial cell concentration of 2×10^5 cells/50 μl, the cells were inoculated to a microtiter plate (NUNC, USA). Thereafter, LL37-1, LL37-2, LL37-3 or LL37-4 peptide which has been synthesized in Example 1 above was subjected to serial dilution, ½ times for each, in a 96-well plate. After adding the peptides in an amount of 50 μl to the cell plate, the cells were cultured for 18 hours at 37° C. By using a microtiter plate reader (Merck Elisa reader, Germany), the absorbance was measured at a wavelength of 600 nm to determine the MIC value of each bacterial strain. As a control group, LL37 as a mother peptide was used and subjected to the same process as above to determine the MIC value of each strain.

The subject of series [2] is L. monocytogenes KCTC 3710. Format: cell-based, Listeria monocytogenes.
From the text: as §1, §2

Series [3] in a line: Cytotoxicity in normal cell line (MTT). Format: cell-based, human. The settings on record: human. As to the method:
To determine the cytotoxicity of the peptides produced by the method of Example 1 in normal cell line, cytotoxicity was measured by using normal human keratinocyte cell line (HaCaT) and normal human fibroblast cell line (Hs27).
Specifically, normal human keratinocyte (HaCaT) cells and normal human fibroblast (Hs27) cells, which have been cultured in DMEM medium containing 10% FBS (fetal bovine serum), were aliquoted in a microtiter plate to have 1×10^4 cells per well. After culturing them for 24 hours, the cells were subjected to a treatment with LL37, LL37-1, LL37-2, LL37-3 or LL37-4 peptide, each at concentration of 0.5, 1, 2, 4, 8, 16 or 32 μM/well, followed by reaction for 24 hours in a 5% CO2 incubator. After culture, a reaction solution containing 5 mg/ml MTT (Thiazolyl Blue Tetrazolium Bromide) dissolved in phosphate buffered saline (PBS) was added in an amount of 10 μl to each well and the reaction was allowed to occur for 1 hour. After that, the supernatant was discarded, and, by dissolving MTT crystals that are formed by adding 200 μl DMSO (dimethyl sulfoxide), the absorbance at 570 nm was measured to determine the cell survival ability.

Series [4] concerns P. aeruginosa ATCC 27853. Format: cell-based, Pseudomonas aeruginosa.
From the text: as §1, §2

For series [5], the system named is Acinetobacter baumannii KCTC 2508. The experiment in a line: Low vacuum scanning electron microscopy (membrane-disrupting property). Format: cell-based. The settings on record: peptide at MIC concentration, 30 minutes at 37° C. As to the method: To specifically determine the degree of antimicrobial activity of the synthesized peptides of the present invention, the influence of mother peptide LL37 and homologous peptides LL37-1, LL37-2, LL37-3 and LL37-4 on bacteria membrane, i.e., membrane-disrupting property, was determined by low vacuum scanning electron microscopy.
Specifically, Acinetobacter baumannii KCTC 2508 cells were cultured to a mid-log phase in MHB medium, and then diluted to a cell concentration of 2×10^7 cells/ml in physiological saline containing 10% MHB medium. […] After that, by using 2.5% glutaraldehyde, the bacterial cells were fixed for 30 minutes at room temperature and then for 12 hours at 4° C. After carrying out washing with buffer, the cells were fixed again with […] and dehydrated in stepwise manner by using ethanol. After the dehydration, platinum coating was carried out and the cells were observed by low vacuum scanning electron microscopy.

Series [6] shares this test system. Format: cell-based. The note with it: peptide 100 μg/ml with 10.7 nM trypsin, 10 minutes at 37° C.; A. baumannii KCTC 2508. Here is the method: To determine the activity of the peptides, which have been prepared by the method of Example 1, in the presence of trypsin as one type of proteases, peptide stability against protease was determined by radial diffusion assay.
Specifically, among the bacterial strains that are described in the above Table 2, Acinetobacter baumannii KCTC 2508 cells were cultured to a mid-log phase in MHB medium, and, after diluting the cells to a cell concentration of 2×10^5 cells/10 ml, the cells were admixed with agarose which has been adjusted to final concentration of 1% and then evenly spread and solidified on a Petri dish. After that, the peptide adjusted to a concentration of 100 μg/ml was admixed with 10.7 nM trypsin and reacted for 10 minutes at 37° C. After applying a paper disk (diameter: 6 mm) on the solidified Petri dish, the peptide obtained after the reaction with trypsin was aliquoted thereto in an amount of 25 μl. After culture for 18 hours at 37° C., diameter of the clear zone around the paper disk was measured so that the level of antimicrobial activity for Acinetobacter baumannii KCTC 2508 was determined.

The structures appear in SMILES notation. In brackets after ≈: the same amount, converted by molar mass. Like-named read-outs stand apart in the source and are kept apart here. Where a SMILES comes first, the peptide text is derived from it.

With `CC[C@H](C)[C@H](NC(=O)[C@H](CCCNC(=N)N)NC(=O)[C@H](CCC(N)=O)NC(=O)[C@@H](NC(=O)[C@@H](NC(=O)[C@H](CCCNC(=N)N)NC(=O)[C@H](CCCCN)NC(=O)[C@H](Cc1ccccc1)NC(=O)[C@H](CCCCN)NC(=O)[C@@H](N)CCCCN)[C@@H](C)CC)C(C)C)C(=O)N[C@@H](CCCCN)C(=O)N[C@@H](CC(=O)O)C(=O)N[C@@H](Cc1ccccc1)C(=O)N[C@@H](CC(C)C)C(=O)N[C@@H](CCCNC(=N)N)C(=O)N[C@@H](CC(N)=O)C(N)=O` [LL37-2, KKFKRIVQRIKDFLRN-NH2] (H-KKFKRIVQRIKDFLRN-NH2), the Minimal inhibitory concentration in series [1] (S. typhimurium KCTC 1925, MHB, 18 hours at 37° C.) came to 4 µM (≈ 8.35 µg/mL); in series [2] (L. monocytogenes KCTC 3710, MHB, 18 hours at 37° C.) it was 16 µM (≈ 33.4 µg/mL); in series [4] (P. aeruginosa ATCC 27853, MHB, 18 hours at 37° C.), 8 µM (≈ 16.7 µg/mL). For the same compound, the viability at 24 h, 0.5 µM in series [3] (HaCaT keratinocyte cells, HaCaT, peptide 0.5 μM, 24 hours, MTT, read-out: Cell survival ability) is 100%; in series [3] (Hs27 fibroblast cells, Hs27, peptide 0.5 μM, 24 hours, MTT, read-out: Cell survival ability), 92%. Also, the viability at 24 h, 1 µM is 106% in series [3] (HaCaT keratinocyte cells, HaCaT, peptide 1 μM, 24 hours, MTT, read-out: Cell survival ability) and 92% in series [3] (Hs27 fibroblast cells, Hs27, peptide 1 μM, 24 hours, MTT, read-out: Cell survival ability). The viability at 24 h, 2 µM in series [3] (HaCaT keratinocyte cells, HaCaT, peptide 2 μM, 24 hours, MTT, read-out: Cell survival ability) is 104%; in series [3] (Hs27 fibroblast cells, Hs27, peptide 2 μM, 24 hours, MTT, read-out: Cell survival ability) it was 94%. For the same compound, the viability at 24 h, 4 µM in series [3] (HaCaT keratinocyte cells, HaCaT, peptide 4 μM, 24 hours, MTT, read-out: Cell survival ability) was determined as 102%; in series [3] (Hs27 fibroblast cells, Hs27, peptide 4 μM, 24 hours, MTT, read-out: Cell survival ability) it was 91%. Besides, the viability at 24 h, 8 µM in series [3] (HaCaT keratinocyte cells, HaCaT, peptide 8 μM, 24 hours, MTT, read-out: Cell survival ability) is 101%; in series [3] (Hs27 fibroblast cells, Hs27, peptide 8 μM, 24 hours, MTT, read-out: Cell survival ability), 89%. Also, the viability at 24 h, 16 µM in series [3] (HaCaT keratinocyte cells, HaCaT, peptide 16 μM, 24 hours, MTT, read-out: Cell survival ability) stood at 107%; in series [3] (Hs27 fibroblast cells, Hs27, peptide 16 μM, 24 hours, MTT, read-out: Cell survival ability), 93%. Moreover, the viability at 24 h, 32 µM in series [3] (HaCaT keratinocyte cells, HaCaT, peptide 32 μM, 24 hours, MTT, read-out: Cell survival ability) is 107%; in series [3] (Hs27 fibroblast cells, Hs27, peptide 32 μM, 24 hours, MTT, read-out: Cell survival ability), 97%.
Turning to `CC[C@H](C)[C@H](NC(=O)[C@H](CCCCN)NC(=O)[C@H](CCC(=O)O)NC(=O)[C@H](CCCCN)NC(=O)[C@H](CO)NC(=O)[C@H](CCCCN)NC(=O)[C@H](CCCNC(=N)N)NC(=O)[C@H](Cc1ccccc1)NC(=O)[C@H](Cc1ccccc1)NC(=O)[C@H](CC(=O)O)NC(=O)CNC(=O)[C@H](CC(C)C)NC(=O)[C@@H](N)CC(C)C)C(=O)NCC(=O)N[C@@H](CCCCN)C(=O)N[C@@H](CCC(=O)O)C(=O)N[C@@H](Cc1ccccc1)C(=O)N[C@@H](CCCCN)C(=O)N[C@@H](CCCNC(=N)N)C(=O)N[C@H](C(=O)N[C@H](C(=O)N[C@@H](CCC(N)=O)C(=O)N[C@@H](CCCNC(=N)N)C(=O)N[C@H](C(=O)N[C@@H](CCCCN)C(=O)N[C@@H](CC(=O)O)C(=O)N[C@@H](Cc1ccccc1)C(=O)N[C@@H](CC(C)C)C(=O)N[C@@H](CCCNC(=N)N)C(=O)N[C@@H](CC(N)=O)C(=O)N[C@@H](CC(C)C)C(=O)N[C@H](C(=O)N1CCC[C@H]1C(=O)N[C@@H](CCCNC(=N)N)C(=O)N[C@H](C(=O)N[C@@H](CCC(=O)O)C(=O)N[C@@H](CO)C(N)=O)[C@@H](C)O)C(C)C)[C@@H](C)CC)C(C)C)[C@@H](C)CC` [LL37], the Minimal inhibitory concentration in series [1] (KCTC 1925, 18 h) is 32 µM (≈ 144 µg/mL). Besides, the “membrane-disrupting property (scanning electron microscopy)” value in series [5] is on record as “disruption of bacteria membrane”. Further, in series [2] (KCTC 3710, 18 h), the Minimal inhibitory concentration was determined as 64 µM (≈ 288 µg/mL). Besides, in series [3] (HaCaT keratinocyte cells), the viability at 24 h, 0.5 µM is 99%; the viability at 24 h, 1 µM came out at 99%; the viability at 24 h, 2 µM was 96%; the viability at 24 h, 4 µM amounted to 98%. Besides, in series [3] (HaCaT keratinocyte cells), the viability at 24 h, 8 µM amounted to 99%; the viability at 24 h, 16 µM was found to be 83%; the viability at 24 h, 32 µM is 17%. Further, in series [3] (Hs27 fibroblast cells), the viability at 24 h, 0.5 µM is 95%; the viability at 24 h, 1 µM was 90%; the viability at 24 h, 2 µM is 90%; the viability at 24 h, 4 µM worked out at 89%. For the same compound, in series [3] (Hs27 fibroblast cells), the viability at 24 h, 8 µM was 90%; the viability at 24 h, 16 µM worked out at 82%; the viability at 24 h, 32 µM was determined as 19%. Further, the “antimicrobial activity after reaction with trypsin” value in series [6] is reported as “did not exhibit any antimicrobial activity”. This compound had a Minimal inhibitory concentration in series [4] (ATCC 27853, 18 h) of 8 µM (≈ 35.9 µg/mL).
In series [1] (KCTC 1925, 18 h), `CC[C@H](C)[C@H](NC(=O)[C@H](CCCNC(=N)N)NC(=O)[C@H](CCC(N)=O)NC(=O)[C@@H](NC(=O)[C@@H](NC(=O)[C@H](CCCNC(=N)N)NC(=O)[C@H](CCCCN)NC(=O)[C@H](Cc1ccccc1)NC(=O)[C@H](CCC(=O)O)NC(=O)[C@@H](N)CCCCN)[C@@H](C)CC)C(C)C)C(=O)N[C@@H](CCCCN)C(=O)N[C@@H](CCCCN)C(=O)N[C@@H](Cc1ccccc1)C(=O)N[C@@H](CC(C)C)C(=O)N[C@@H](CCCNC(=N)N)C(=O)N[C@@H](CC(N)=O)C(N)=O` [LL37-3, KEFKRIVQRIKKFLRN-NH2] (H-KEFKRIVQRIKKFLRN-NH2; N-terminus assumed) yielded a Minimal inhibitory concentration of 8 µM (≈ 16.8 µg/mL). Further, in series [5], the “membrane-disrupting property (scanning electron microscopy)” value is given as “disruption of bacteria membrane”. The same compound yielded a Minimal inhibitory concentration in series [2] (KCTC 3710, 18 h) of 64 µM (≈ 135 µg/mL). Also, in series [3] (HaCaT keratinocyte cells), the viability at 24 h, 0.5 µM was found to be 96%; the viability at 24 h, 1 µM stood at 100%; the viability at 24 h, 2 µM worked out at 101%; the viability at 24 h, 4 µM is 98%. Also, in series [3] (HaCaT keratinocyte cells), the viability at 24 h, 8 µM came to 98%; the viability at 24 h, 16 µM turned out to be 104%; the viability at 24 h, 32 µM amounted to 104%. In series [3] (Hs27 fibroblast cells), the viability at 24 h, 0.5 µM came out at 94%; the viability at 24 h, 1 µM is 92%; the viability at 24 h, 2 µM was 93%; the viability at 24 h, 4 µM is 90%. In addition, in series [3] (Hs27 fibroblast cells), the viability at 24 h, 8 µM was found to be 91%; the viability at 24 h, 16 µM was 93%; the viability at 24 h, 32 µM amounted to 95%. This compound displayed a Minimal inhibitory concentration in series [4] (ATCC 27853, 18 h) of 8 µM (≈ 16.8 µg/mL).
